Data set [1] concerns ECa-109 cell line. As to the kind of experiment: Reversal of vincristine-resistance in human Eca-109 cells assessed as fold reversal by measuring cell viability incubated for 48 hrs by CCK-8 method relative to vincristine alone. The class given is functional. A general note: Formazan colour is commonly taken as a measure of viable cells.
A short description of data set [2]: Cytotoxicity against HEK293T cells incubated for 48 hrs by CCK-8 method. As to conditions: human; call rule not given here. The class given is toxicity, cell-based, HEK-293T.
Data set [3] deals with ECa-109 cell line. As to the kind of experiment: Reversal of VCR -resistance in human Eca-109 cells assessed as cell viability at 1 uM incubated for 48 hrs by CCK-8 method (reference value: 6830.0+/-537.0 nM). The class given is functional, cell-based. Particulars: ECa-109, 48 h.
Data set [4] has as its system ECa-109 cell line. As to the kind of experiment: Induction of apoptosis in vincristine resistant human Eca-109 cells assessed as viable cells at 2.5 uM incubated for 24 hrs by AnnexinV-FITC/PI staining based flow cytometric analysis (reference value: 90.3%). The class given is functional. Particulars: read-out: Activity. Background: In flow cytometry, cells or beads pass a laser one at a time.

In data set [5] the test system is ECa-109 cell line. As to the kind of experiment: Induction of apoptosis in vincristine resistant human Eca-109 cells assessed as early apoptotic cells at 2.5 uM incubated for 24 hrs by AnnexinV-FITC/PI staining based flow cytometric analysis (reference value: 2.30%). The class given is functional.
For data set [6], the system named is ECa-109 cell line. As to the kind of experiment: Induction of apoptosis in vincristine resistant human Eca-109 cells assessed as necrotic cells at 1 uM incubated for 24 hrs by AnnexinV-FITC/PI staining based flow cytometric analysis (reference value: 0.25%). The class given is functional.
The test system of data set [7] is ECa-109 cell line. As to the kind of experiment: Induction of apoptosis in vincristine resistant human Eca-109 cells assessed as necrotic cells at 2.5 uM incubated for 24 hrs in presence of vincristine by AnnexinV-FITC/PI staining based flow cytometric analysis (reference value: 0.35%). The class given is functional.
In data set [8] the test system is ECa-109 cell line. As to the kind of experiment: Synergistic anticancer activity in vincristine resistant human Eca-109 cells assessed as combination index at 10:1 compound to vincristine ratio measured after 48 hrs. It is filed as functional.
A short description of data set [9]: Hepatotoxicity in nude mouse at 30 mg/kg, IG administered every two days for 21 days in presence of vincristine by H and E staining based analysis. The class given is toxicity, organism-based. As to conditions: in vivo, po, 504 h, time 21 day.
A short description of data set [10]: Tmax in Sprague-Dawley rat at 30 mg/kg, po measured upto 24 hrs by UPLC/MS/MS analysis. It is filed as ADME, organism-based. Particulars: in vivo.
The nature of data set [11]: Cmax in Sprague-Dawley rat at 30 mg/kg, po measured upto 24 hrs by UPLC/MS/MS analysis. The class given is ADME, organism-based. The arrangement: time < 24 hrs, dose 30 mg/kg, route po. As to conditions: in vivo.
Data set [12] concerns the target T1, ATP-dependent translocase ABCB1 (Homo sapiens, UniProt P08183). As to the kind of experiment: Inhibition of P-gp efflux in vincristine resistant human Eca-109 cells assessed as increase in rhodamine 123 accumulation incubated for 3 hrs by DAPI staining based laser-scanning confocal microscopy analysis. It is filed as cell-based. Particulars: eca-109, 3 h, at 1 to 5 µM, dose 1-5 µM.

In data set [13] the target is T1, ATP-dependent translocase ABCB1. As to the kind of experiment: Inhibition of P-gp efflux in vincristine resistant human Eca-109 cells assessed as increase in intracellular accumulation of rhodamine123 at 1 to 5 uM incubated for 1 hr by flow cytometry analysis. The class given is cell-based. As to conditions: eca-109, 1 h, dose 1-5 µM.
For data set [14] the target is unchanged. As to the kind of experiment: Binding affinity to P-gp in vincristine resistant human Eca-109 cells assessed as stabilization of protein at 67 degree C at 100 uM incubated for 30 mins by thermal shift assay. The class given is cell-based. As to conditions: eca-109, 0.5 h.
Data set [15] deals with T2, Broad substrate specificity ATP-binding cassette transporter ABCG2 (Homo sapiens, UniProt Q9UNQ0).
T2 sequence (Q9UNQ0 whole entry): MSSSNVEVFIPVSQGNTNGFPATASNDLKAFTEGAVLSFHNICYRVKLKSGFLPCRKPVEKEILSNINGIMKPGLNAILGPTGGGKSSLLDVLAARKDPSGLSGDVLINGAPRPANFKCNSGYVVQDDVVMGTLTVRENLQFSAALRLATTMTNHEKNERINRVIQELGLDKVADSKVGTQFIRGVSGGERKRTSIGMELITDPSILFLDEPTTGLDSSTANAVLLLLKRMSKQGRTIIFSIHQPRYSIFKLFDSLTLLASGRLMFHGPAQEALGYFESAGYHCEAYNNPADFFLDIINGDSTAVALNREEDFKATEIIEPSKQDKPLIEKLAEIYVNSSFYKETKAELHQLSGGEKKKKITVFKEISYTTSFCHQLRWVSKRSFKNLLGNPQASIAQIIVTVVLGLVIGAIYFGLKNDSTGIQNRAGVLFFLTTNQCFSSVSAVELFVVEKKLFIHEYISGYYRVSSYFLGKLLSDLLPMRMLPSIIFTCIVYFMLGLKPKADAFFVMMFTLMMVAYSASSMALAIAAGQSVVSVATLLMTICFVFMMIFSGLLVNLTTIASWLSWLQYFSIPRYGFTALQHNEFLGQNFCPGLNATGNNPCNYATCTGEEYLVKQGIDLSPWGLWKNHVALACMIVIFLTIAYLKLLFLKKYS
As to the kind of experiment: Binding affinity to ABCG2 in vincristine resistant human Eca-109 cells assessed as stabilization of protein at 100 uM incubated for 30 mins by thermal shift assay. The class given is cell-based. Particulars: eca-109, 0.5 h.

What is called IC50 is the concentration at which inhibition is half-maximal. Usually Tmax stands for the time at which the peak concentration occurs. The term Cmax denotes the maximum level reached in the sampled fluid or tissue.

T1 sequence (P08183 whole entry): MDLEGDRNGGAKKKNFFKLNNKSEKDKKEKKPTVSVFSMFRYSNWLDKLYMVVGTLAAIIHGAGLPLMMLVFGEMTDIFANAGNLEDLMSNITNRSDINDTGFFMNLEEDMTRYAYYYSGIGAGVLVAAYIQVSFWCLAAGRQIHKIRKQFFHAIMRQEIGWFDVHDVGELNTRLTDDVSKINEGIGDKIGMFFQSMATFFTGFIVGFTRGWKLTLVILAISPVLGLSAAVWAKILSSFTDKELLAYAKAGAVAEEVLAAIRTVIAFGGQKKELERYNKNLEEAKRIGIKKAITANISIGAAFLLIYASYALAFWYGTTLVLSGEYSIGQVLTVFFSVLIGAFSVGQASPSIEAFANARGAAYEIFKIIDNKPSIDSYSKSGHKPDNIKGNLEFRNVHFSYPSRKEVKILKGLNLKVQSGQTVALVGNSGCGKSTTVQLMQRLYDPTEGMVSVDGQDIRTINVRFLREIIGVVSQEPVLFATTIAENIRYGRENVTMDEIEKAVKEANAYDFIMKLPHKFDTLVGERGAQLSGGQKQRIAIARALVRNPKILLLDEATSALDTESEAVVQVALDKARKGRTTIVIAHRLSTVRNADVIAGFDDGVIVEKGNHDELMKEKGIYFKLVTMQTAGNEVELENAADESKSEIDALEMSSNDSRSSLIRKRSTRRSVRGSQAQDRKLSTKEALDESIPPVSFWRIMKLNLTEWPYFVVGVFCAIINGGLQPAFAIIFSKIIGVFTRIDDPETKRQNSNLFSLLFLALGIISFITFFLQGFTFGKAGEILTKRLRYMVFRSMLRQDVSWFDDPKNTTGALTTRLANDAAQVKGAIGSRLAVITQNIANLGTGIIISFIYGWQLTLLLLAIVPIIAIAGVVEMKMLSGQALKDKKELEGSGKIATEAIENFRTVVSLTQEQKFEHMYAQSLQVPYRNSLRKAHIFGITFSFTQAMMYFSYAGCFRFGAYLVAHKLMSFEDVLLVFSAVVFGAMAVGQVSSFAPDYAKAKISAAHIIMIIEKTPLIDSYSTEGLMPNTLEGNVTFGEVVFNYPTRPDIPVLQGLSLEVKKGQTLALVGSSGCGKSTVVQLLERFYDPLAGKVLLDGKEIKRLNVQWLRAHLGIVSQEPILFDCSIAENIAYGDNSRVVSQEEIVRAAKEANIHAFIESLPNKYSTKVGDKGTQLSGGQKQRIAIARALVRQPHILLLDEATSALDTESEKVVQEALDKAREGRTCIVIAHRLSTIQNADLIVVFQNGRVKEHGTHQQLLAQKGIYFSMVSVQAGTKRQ

Turning to `COc1cc2c(cc1OC)C(Cc1ccc(OC)c(OCc3ccccc3)c1)N(C)CC2` (stereo not given), the “fold change (FC)” value in the data set on ECa-109 cell line [1] is given as 690.6. The IC50 at 48 h in data set [2] was > 50 µM. Also, the IC50 in the data set on ECa-109 cell line [3] amounted to 1.87 µM. Besides, in the data set on ECa-109 cell line [4], the viability at 2.5 µM was 91.9%. Further, the Activity in the data set on ECa-109 cell line [5] is given as 2.26%; in the data set with ECa-109 cell line [6], 0.15%; in the data set with ECa-109 cell line [7], 0.42%; in data set [9] it was “Non-Toxic”; in data set [14] it was “Active”; in data set [15], “Not Active”. For the same molecule, in the data set on ECa-109 cell line [8], the CI was <1. Also, the Tmax in [10] was 22.8 min. The same molecule showed a Cmax in data set [11] of 637 ng/mL. Also, the “inhibition (INH)” value is “Dose-Dependent Effect” in [12] and “Active” in data set [13].

(Values after ChEMBL document CHEMBL5247655, “Simplified Derivatives of Tetrandrine as Potent and Specific P-gp Inhibitors to Reverse Multidrug Resistance in Cancer Chemotherapy” (J Med Chem, 2023).)
